Reference: article PMC12163485 (Drug Metabolism and Disposition, 2025)
Where “and” joins values, the source holds several entries; their conditions need not be identical. Identical values can stand only once. Like-named read-outs stand apart in the source and are kept apart here.

Assays:
[1] = molecular target: T1, mouse OCT1 (Mus musculus, UniProt O08966); assay: Uptake of the cocktail by HEK293 cells overexpressing mouse Oct1
T1 sequence (O08966 1-556): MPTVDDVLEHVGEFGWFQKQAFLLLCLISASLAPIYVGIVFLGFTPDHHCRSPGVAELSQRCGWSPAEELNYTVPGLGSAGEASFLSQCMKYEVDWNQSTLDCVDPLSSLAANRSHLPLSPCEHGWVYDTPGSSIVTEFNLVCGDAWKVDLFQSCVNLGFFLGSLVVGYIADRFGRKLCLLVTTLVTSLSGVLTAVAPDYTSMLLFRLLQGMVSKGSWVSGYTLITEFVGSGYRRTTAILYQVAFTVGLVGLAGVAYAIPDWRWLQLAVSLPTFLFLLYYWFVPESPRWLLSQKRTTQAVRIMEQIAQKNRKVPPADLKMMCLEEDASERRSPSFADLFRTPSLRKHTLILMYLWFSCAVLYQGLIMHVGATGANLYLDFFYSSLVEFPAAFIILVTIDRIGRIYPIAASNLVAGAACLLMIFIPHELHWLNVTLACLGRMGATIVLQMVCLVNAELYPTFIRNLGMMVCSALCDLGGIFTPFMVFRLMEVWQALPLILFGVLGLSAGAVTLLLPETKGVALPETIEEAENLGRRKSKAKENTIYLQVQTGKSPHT
Procedure: (§1) Significance was calculated using Mann–Whitney U test. n = 5–8 independent experiments.

[2] = Pharmacokinetic parameters used for estimating the potential for DDIs; assay type: in vivo, human; conditions: human; for k el: po
Procedure: Ka was calculated manually based on available pharmacokinetic parameters.

[3] = molecular target: T2, human MATE1 (hMATE1) (Homo sapiens, UniProt Q96FL8); assay: Uptake of the extended cocktail by HEK293 cells overexpressing hMATE1; assay type: in vitro ADME; conditions: Fig. 6, uptake 1 minute after NH4Cl preincubation
T2 sequence (Q96FL8 1-570): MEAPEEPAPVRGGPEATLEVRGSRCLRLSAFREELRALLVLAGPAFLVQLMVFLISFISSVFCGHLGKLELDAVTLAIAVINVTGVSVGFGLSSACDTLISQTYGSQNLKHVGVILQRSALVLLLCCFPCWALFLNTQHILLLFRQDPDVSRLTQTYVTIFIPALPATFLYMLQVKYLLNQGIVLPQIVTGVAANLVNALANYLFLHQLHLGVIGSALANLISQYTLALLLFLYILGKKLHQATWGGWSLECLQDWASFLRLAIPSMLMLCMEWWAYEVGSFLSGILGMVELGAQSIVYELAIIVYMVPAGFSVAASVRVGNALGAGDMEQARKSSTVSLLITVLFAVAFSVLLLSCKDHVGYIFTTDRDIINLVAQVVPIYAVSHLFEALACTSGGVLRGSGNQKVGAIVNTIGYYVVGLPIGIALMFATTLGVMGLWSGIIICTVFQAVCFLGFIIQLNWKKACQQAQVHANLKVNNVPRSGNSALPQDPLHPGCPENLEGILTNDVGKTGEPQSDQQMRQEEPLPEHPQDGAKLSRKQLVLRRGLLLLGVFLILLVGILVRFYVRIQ

[4] = molecular target: human MATE2K (hMATE2K) (Homo sapiens, UniProt Q86VL8); assay: Uptake of the extended cocktail by HEK293 cells overexpressing hMATE2K; assay type: in vitro ADME; conditions: Fig. 6, uptake 1 minute after NH4Cl preincubation
Chain of human MATE2K (hMATE2K) (Q86VL8 1-566 isoform Q86VL8-3): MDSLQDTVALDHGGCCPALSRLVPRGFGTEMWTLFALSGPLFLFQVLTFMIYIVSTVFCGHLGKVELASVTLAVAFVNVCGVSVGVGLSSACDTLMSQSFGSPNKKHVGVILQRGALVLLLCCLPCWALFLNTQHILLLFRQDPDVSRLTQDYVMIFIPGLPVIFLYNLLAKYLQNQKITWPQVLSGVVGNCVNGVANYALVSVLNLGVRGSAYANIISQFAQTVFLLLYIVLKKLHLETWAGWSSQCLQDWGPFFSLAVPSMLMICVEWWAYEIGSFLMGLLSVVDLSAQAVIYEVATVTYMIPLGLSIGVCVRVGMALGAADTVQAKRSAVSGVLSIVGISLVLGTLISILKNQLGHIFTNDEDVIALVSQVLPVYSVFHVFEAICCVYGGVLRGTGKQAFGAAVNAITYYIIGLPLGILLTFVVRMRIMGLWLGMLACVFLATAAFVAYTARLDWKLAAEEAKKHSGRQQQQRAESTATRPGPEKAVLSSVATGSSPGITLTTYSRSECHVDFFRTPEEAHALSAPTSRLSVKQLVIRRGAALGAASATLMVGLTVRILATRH

[5] = molecular target: T3, OCT1 (Homo sapiens, UniProt O15245)
T3 sequence (O15245 1-554): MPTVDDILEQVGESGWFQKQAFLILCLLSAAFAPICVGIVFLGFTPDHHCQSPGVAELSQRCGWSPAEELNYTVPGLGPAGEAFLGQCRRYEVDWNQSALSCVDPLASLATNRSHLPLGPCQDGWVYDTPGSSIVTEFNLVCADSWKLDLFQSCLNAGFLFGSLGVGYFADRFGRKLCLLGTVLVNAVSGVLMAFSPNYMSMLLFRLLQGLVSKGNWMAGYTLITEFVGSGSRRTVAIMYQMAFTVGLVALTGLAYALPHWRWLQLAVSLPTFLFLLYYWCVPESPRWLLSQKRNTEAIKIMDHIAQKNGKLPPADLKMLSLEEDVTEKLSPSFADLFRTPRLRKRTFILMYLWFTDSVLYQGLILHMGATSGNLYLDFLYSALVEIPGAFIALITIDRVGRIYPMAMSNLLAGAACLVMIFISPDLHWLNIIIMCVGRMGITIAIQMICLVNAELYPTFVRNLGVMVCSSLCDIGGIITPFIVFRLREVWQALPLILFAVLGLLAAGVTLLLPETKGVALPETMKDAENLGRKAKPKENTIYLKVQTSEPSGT
Procedure: (§2) Ka was calculated manually based on available pharmacokinetic parameters. Qh was set to 97 L/h and Fa was assumed as 1.

[6] = system: mOct1; design: method as in ref column References of Table 2 (Morse et al, 2020; Jensen et al, 2020; Meyer et al, 2022); conditions: literature values; References of Table 2 (Morse et al, 2020; Jensen et al, 2020; Meyer et al, 2022); cited from earlier work
[7] = cited from earlier work; for cmax = Imax: dose and route as in Supplemental Table 4, ref Hardman, 2018, fenoterol Tzvetkov et al; for cmax = Imax / fraction unbound: ipratropium Zhang et al, 2023; for fraction unbound: fraction unbound in plasma, ref Hardman, 2018, Lombardo et al (2018), fenoterol Tzvetkov et al; for tmax: p.o., ref Hardman, 2018
[8] = molecular target: T3, OCT1; assay: DDI risk R calculated from IC50 at human OCT1; conditions: R=1+fup×Iin,max/IC50, cutoff R ≥ 1.1
Procedure: as §2

[9] = molecular target: T4, human OCT1 (hOCT1) (Homo sapiens, UniProt O15245); assay: Transport kinetics (KM, vmax) of OCT1-mediated uptake, HEK293 cells overexpressing human OCT1; assay type: in vitro ADME; design: expressed in transfected cells; empty vector control pcDNA5; conditions: mean ± SD; for vmax: hOCT1; for Km at 2 min: human, HEK293 cells stably overexpressing human OCT1, pH 7.4, hOCT1
T4 sequence (O15245 1-554): T3 sequence (O15245 1-554)
Procedure: To validate the cocktail, we analyzed whether the combination of all substrates in a cocktail affected their individual transport kinetics in terms of KM and vmax. […] To measure the transport kinetics for a single substrate in the cocktail, we increased the concentration of 1 substrate while keeping the concentrations of the other substrates in the cocktail constant. The resulting KM and vmax values were compared with those obtained when each substrate was tested alone (Fig. 2; Supplemental Table 5).

[10] = molecular target: T4, human OCT1 (hOCT1); design: expressed in transfected cells; empty vector control pcDNA5; method as in ref column References of Table 2 (Tzvetkov et al, 2018; Morse et al, 2020; Jensen et al, 2020; Meyer et al, 2019, 2022; Wittern et al, 2024 and own unpublished data; Elsby et al, 2017); conditions: literature values; References of Table 2 (Tzvetkov et al, 2018; Morse et al, 2020; Jensen et al, 2020; Meyer et al, 2019, 2022; Wittern et al, 2024 and own unpublished data; Elsby et al, 2017); cited from earlier work
[11] = molecular target: T3, OCT1; assay: Uptake of the cocktail by HEK293 cells overexpressing human OCT1; conditions: cocktail
Procedure: as §1

[12] = molecular target: T4, human OCT1 (hOCT1)
Procedure: (§3) The kinetic transport parameters KM and vmax as well as the half-maximal inhibitory concentration (IC50) were calculated using GraphPad Prism version 8.0.2 (GraphPad Software, Inc). KM and vmax were calculated using nonlinear regression to the Michaelis-Menten equation.

[13] = system: OCT1; conditions: ref Tzvetkov et al, 2018 (fenoterol); Matthaei et al, 2016 (sumatriptan); cited from earlier work
[14] = molecular target: T4, human OCT1 (hOCT1); assay: Inhibition of OCT1-mediated uptake of the cocktail substrates in HEK293 cells overexpressing human OCT1; conditions: human OCT1, mean ± SD
Procedure: as §3

[15] = fold change to the negative control, n = 12

Row | SMILES | I max, portal, u ([2]; in vivo) [µM] | Imax, portal ([2]; in vivo) [ng/mL] | transport by MATE1 [3] | transport by MATE2K [4] | DDI risk R, victim drug trospium [5] | Km [6] [µM] | cmax = Imax [7] [ng/mL] | fraction unbound [7] | tmax [7] [h] | DDI risk R, victim drug fenoterol [8] | DDI risk R, victim drug ipratropium [8] | DDI risk R, victim drug methylnaltrexone [8] | DDI risk R, victim drug salbutamol [8] | DDI risk R, victim drug zolmitriptan [8] | Km [10] [µM] | also measured
1 | CN(C)C(=N)N=C(N)N [Metformin, metformin] | 39.48 | 5100 | by far the strongest transport activity | by far the strongest transport activity | 1.00 | 491 | 1600 | 1 | 1.90 | 1.00 | 1.01 | 1.01 | 1.00 | 1.00 | 3030 | uptake stronger in mouse than in human OCT1 ([1]; ratio mouse/human): 5.1 fold; k el ([2]; in vivo): 0.000111 s⁻¹; DDI risk R, victim drug sumatriptan [8]: 1.01; vmax ([9]; substrate tested alone): 6999 ± 2065 pmol x min^-1 x mg protein^-1; vmax ([9]; substrate tested in cocktail): 5251 ± 1311 pmol x min^-1 x mg protein^-1; Km at 2 min ([9]; substrate tested alone): 1380 ± 512 µM; Km at 2 min ([9]; substrate tested in cocktail): 2000 ± 338 µM
2 | CNS(=O)(=O)Cc1ccc2[nH]cc(CCN(C)C)c2c1 [Sumatriptan, sumatriptan] | 1.91 | 714.8 | by far the strongest transport activity | by far the strongest transport activity | 1.01 | 65.7 | 54 | 0.79 | 1.50 | 1.00 | 1.01 | 1.00 | 1.00 | 1.00 | 55.8 | human OCT1 uptake [fold change to pcDNA5] [11, 15]: 15.3 fold change to pcDNA5; uptake stronger in human than in mouse OCT1 ([11]; ratio human/mouse): 2 fold; mouse Oct1 uptake [fold change to pcDNA5] [1, 15]: 7.8 fold change to pcDNA5; ka ([2]; in vivo): 0.64 h⁻¹; k el ([2]; plasma, read-out: ke (converted)): 0.000192 s⁻¹; IC50 [12]: 604 µM and 628 µM; increase in systemic exposure in individuals homozygous for OCT1 loss-of-function genetic variants [13]: 2 fold; t1/2 ([7]; ref Hardman, 2018, fenoterol Tzvetkov et al): 1.00 h; DDI risk R, victim drug metformin [8]: 1.00; IC50 ([14]; IC50 for inhibition of fenoterol uptake, substrate (victim) fenoterol 0.5 μM in cocktail): 482 ± 42.9 µM; IC50 ([14]; IC50 for inhibition of ipratropium uptake, substrate (victim) ipratropium 0.5 μM in cocktail): 207 µM; IC50 ([14]; IC50 for inhibition of methylnaltrexone uptake, substrate (victim) methylnaltrexone 1 μM in cocktail): 448 ± 40.9 µM; IC50 ([14]; IC50 for inhibition of trospium uptake, substrate (victim) trospium 0.1 μM in cocktail): 270 ± 42.6 µM; IC50 ([14]; IC50 for inhibition of zolmitriptan uptake, substrate (victim) zolmitriptan 0.5 μM in cocktail): 506 ± 36.2 µM
